In PMC7888557 (International journal of biological macromolecules, 2017):

Biological target: T1, S-adenosyl-L-homocysteine hydrolase from T. maritima (TmSAHase; iTmSAHase as purified, htTmSAHase after heat treatment) (Thermotoga maritima, UniProt O51933)
T1 sequence (O51933 1-404): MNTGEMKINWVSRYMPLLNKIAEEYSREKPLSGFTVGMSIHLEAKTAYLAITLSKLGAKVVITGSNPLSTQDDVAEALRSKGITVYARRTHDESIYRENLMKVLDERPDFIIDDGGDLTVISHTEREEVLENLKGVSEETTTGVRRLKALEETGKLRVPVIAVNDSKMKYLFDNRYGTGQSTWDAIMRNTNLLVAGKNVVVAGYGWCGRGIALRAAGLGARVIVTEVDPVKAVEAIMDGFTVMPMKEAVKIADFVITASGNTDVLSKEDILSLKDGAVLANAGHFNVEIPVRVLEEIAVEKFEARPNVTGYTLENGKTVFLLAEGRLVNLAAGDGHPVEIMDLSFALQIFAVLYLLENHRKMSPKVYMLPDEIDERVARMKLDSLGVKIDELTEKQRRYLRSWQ
Assay: isothermal titration calorimetry
Format: binding

Row | SMILES | Kd (htTmSAHase/Ado) [µM] | Kd (iTmSAHase/Ado) [µM] | Kd (htTmSAHase/AMP) [µM] | Kd (iTmSAHase/AMP) [µM]
1 | Nc1ncnc2c1ncn2[C@@H]1O[C@H](CO)[C@@H](O)[C@H]1O [Ado, adenosine] | 8.8 ± 1.2 | 19 ± 1.5 |  | 
2 | Nc1ncnc2c1ncn2[C@@H]1O[C@H](COP(=O)(O)O)[C@@H](O)[C@H]1O [AMP, adenosine 5′-monophosphate] |  |  | 25 ± 2 | 30 ± 3
